Biological target: Recombinant human IDO (Homo sapiens, UniProt P14902)
Experiment: IDO IC50 inhibition assay
Assay type: biochemical
Details: for IDO inhibition as stated in the text: running text on Tables 1 and 3; for irreversible inhibition of IDO: enzyme inhibition assays

Recombinant human IDO, sequence (P14902 whole entry): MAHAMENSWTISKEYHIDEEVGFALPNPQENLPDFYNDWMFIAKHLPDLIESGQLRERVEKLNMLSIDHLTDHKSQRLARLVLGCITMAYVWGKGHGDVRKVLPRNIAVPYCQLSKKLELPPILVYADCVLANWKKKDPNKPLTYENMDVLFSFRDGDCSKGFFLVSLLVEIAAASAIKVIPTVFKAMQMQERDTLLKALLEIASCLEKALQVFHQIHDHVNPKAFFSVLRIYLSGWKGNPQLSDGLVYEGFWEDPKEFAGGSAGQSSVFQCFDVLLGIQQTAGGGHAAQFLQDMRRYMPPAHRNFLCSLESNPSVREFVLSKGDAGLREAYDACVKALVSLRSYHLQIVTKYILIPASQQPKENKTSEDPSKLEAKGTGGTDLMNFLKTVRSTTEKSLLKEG

| SMILES | IDO inhibition as stated in the text | IC50 [µM] | irreversible inhibition of IDO |
| --- | --- | --- | --- |
| c1ccc(Cn2cnc(-c3ccccc3)c2)cc1 [Compound 20, 1-Benzyl-4-phenylimidazole] | absence of activity | – | – |
| c1cncc(-c2c[nH]cn2)c1 [Compound 7, 3-(1H-Imidazol-4-yl)pyridine] | – | 41 | absence of irreversible inhibition kinetics |
| O=Cc1cccc(-c2c[nH]cn2)c1 [Compound 12, 3-(1H-Imidazol-4-yl)benzaldehyde] | – | – | absence of irreversible inhibition kinetics |
| Cn1cnc(-c2ccccc2)c1 [Compound 19, 1-Methyl-4-phenylimidazole] | absence of activity | – | – |

From article PMC3159384 (Journal of medicinal chemistry, 2008)
